Experiments:
[1] = target: Erk2 (Homo sapiens, UniProt P28482); assay: Cell-free kinase assay (ALPHA technology), Erk2; format: biochemical; details: 10 μM ATP
Outline: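 Recombinant tagged Erk2 kinase reactions were stopped with ALPHA bead mix […]. The signal was read after standing overnight. Controls were run in eight replicates and compounds in duplicate, and IC50 was fitted.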

[2] = target: PI3Kalpha (Homo sapiens (Human), UniProt P42336); assay: Cell-free kinase assay (ALPHA technology), PI3Kalpha; format: biochemical; details: 100 μM ATP
PI3Kalpha, sequence (P42336 whole entry): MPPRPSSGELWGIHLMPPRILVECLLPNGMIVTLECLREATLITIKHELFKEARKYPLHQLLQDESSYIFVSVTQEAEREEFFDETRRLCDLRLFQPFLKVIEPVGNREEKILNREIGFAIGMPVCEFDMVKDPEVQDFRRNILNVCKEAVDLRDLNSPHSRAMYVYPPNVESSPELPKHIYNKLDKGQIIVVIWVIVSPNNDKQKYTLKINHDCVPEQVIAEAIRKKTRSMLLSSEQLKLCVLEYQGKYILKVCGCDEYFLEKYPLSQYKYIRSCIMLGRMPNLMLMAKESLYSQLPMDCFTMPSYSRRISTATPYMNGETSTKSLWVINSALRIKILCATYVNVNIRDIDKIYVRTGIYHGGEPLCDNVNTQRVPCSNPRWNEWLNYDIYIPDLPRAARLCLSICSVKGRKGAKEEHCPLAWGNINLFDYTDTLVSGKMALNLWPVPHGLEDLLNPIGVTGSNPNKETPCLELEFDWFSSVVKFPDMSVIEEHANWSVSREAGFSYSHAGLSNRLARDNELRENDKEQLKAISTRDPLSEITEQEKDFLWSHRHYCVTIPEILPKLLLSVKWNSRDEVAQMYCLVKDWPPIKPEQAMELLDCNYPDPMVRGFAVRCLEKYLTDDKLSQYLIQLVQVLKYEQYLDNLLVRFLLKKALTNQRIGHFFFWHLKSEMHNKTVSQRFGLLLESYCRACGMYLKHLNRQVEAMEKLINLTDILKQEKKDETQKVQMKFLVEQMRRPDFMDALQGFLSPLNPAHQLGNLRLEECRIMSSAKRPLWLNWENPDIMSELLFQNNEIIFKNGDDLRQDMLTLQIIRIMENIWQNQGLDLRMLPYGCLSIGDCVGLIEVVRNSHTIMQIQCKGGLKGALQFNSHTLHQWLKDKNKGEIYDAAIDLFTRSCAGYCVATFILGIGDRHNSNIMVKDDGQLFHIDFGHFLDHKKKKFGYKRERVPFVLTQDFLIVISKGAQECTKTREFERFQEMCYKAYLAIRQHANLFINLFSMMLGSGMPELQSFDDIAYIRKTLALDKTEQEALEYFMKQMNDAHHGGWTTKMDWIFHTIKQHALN
PI3Kalpha, sequence (P27986 whole entry partner): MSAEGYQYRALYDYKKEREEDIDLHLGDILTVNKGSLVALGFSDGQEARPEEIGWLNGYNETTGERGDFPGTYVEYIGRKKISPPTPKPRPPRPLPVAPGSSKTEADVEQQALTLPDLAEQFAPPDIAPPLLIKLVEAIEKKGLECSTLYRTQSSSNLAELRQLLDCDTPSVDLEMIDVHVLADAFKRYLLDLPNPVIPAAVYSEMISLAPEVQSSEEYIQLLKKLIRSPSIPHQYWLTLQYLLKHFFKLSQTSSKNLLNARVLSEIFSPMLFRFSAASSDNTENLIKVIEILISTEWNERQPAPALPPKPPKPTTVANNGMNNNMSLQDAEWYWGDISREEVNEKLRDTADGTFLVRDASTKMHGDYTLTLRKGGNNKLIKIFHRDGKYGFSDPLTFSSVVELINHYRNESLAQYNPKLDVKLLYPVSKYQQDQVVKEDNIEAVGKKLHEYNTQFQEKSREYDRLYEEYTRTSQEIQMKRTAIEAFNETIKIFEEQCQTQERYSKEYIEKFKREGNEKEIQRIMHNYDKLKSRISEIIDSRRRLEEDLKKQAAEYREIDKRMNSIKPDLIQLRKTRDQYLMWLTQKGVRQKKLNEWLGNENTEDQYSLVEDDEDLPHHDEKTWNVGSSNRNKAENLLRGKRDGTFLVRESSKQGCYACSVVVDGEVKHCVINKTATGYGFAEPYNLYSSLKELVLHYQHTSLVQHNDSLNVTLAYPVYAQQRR
Outline: (§1)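 Recombinant human GST- or His-tagged kinases were assayed for 1 h with ALPHA bead detection read after overnight standing. For PI3Kalpha: 1 ng enzyme, 100 μM ATP, 20 μM PIP2 in Hepes pH 7.4, detected by GST:Grp1/biotin-PIP3 competition. The p38alpha and Jnk assays followed the MAPK format (10 μM ATP, biotin-MBP, anti-phospho-MBP); IC50 from %-inhibition.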

[3] = target: p38alpha (Homo sapiens (Human), UniProt Q16539); assay: Cell-free kinase assay (ALPHA technology), p38alpha; format: biochemical; details: 10 μM ATP
p38alpha, sequence (Q16539 whole entry): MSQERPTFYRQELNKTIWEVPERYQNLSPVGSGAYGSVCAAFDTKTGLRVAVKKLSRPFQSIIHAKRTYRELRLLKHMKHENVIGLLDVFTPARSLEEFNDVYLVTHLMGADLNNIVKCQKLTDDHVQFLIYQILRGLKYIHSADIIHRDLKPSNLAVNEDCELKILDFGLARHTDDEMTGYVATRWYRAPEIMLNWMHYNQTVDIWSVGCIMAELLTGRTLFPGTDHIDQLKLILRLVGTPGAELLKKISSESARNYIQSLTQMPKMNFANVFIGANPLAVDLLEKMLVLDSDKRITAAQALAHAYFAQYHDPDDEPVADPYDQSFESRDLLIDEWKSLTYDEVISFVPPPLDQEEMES

[4] = tested on: Jnk1 + Jnk2; assay: Cell-free kinase assay (ALPHA technology), Jnk1 + Jnk2; format: biochemical, human; details: 10 μM ATP
Outline: as §1

[5] = tested on: BxPC3; assay: XTT assay, anti-proliferative effect, BxPC3; format: cell-based; details: Homo sapiens, BXPC-3; 45 h incubation
Description: (§2) The principle of this test is based on the intracellular reduction of the tetrazolium dye XTT (sodium 3′-[1-(phenylaminocarbonyl)-3,4-tetrazolium]-bis(4-methoxy-6-nitro)benzene sulfonic acid, Sigma) to a formazan dye by mitochondrial dehydrogenases. The dye is only formed by metabolically active cells and its photometrically measurable intensity is a quantitative indicator for the presence of living cells. The reduction of dye formation by incubation of the cells with substances serves as a parameter for the anti-proliferative effect.
(§3) The tumour cell lines (ATCC) were injected into 96-well microtitre plates in a defined cell number (5000 cells/well for BxPC3 and Hct116; 10000 cells/well for MDA MB468) and then incubated overnight in an incubator at 37° C., 5% CO2 and 95% air humidity. The test substances were prepared as stock solutions (10 mM) in DMSO. […] The cell plates were then incubated for 45 h in an incubator at 37° C., 5% CO2 and 95% air humidity.
(§4) For the detection reaction the substrate XTT was mixed with PMS (N-Methyl dibenzopyrazine methylsulfate, Sigma) and added to the cells so that a final concentration of 325 μg XTT/ml and 2.5 μg PMS/ml was obtained. It was then incubated for 3 h at 37° C., 95% air humidity. The formazan salt formed by the cellular dehydrogenases could then be quantified by adsorption at 490 nm.
(§5) The % inhibition value was evaluated by means of the following formula from the values for the optical densities measured in each case at 490 nm:
(§6) Eight determinations were made for each control and two for the substance samples. The 0% control contains no cells, the 100% control (proliferation control) contains no test substance. The EC50 values were determined using GraphPadPrism.

[6] = tested on: MDA-MB468; assay: XTT assay, anti-proliferative effect, MDA-MB468; format: cell-based; details: Homo sapiens, MDA-MB-468; 45 h incubation
Description: as §2, §3, §4, §5, §6

[7] = tested on: Hct116; assay: XTT assay, anti-proliferative effect, Hct116; format: cell-based; details: Homo sapiens, HCT-116; 45 h incubation
Description: as §2, §3, §4, §5, §6

[8] = tested on: Erk → pRsk; assay: Cellular substrate phosphorylation (Western Blotting), Erk substrate pRsk; format: cell-based; details: for inhibition at 50 µM: 5 h; for Erk inhibition / inhibition of the Erk substrate p-Rsk (in words): Western Blotting
Description: (§7) This method can be used to predict whether the kinase modulator under study also achieves the desired effect in a cellular context, i.e. in this case, a substrate protein downstream of the target kinase is investigated for its phosphorylation status. For this purpose, the cells incubated with substance are lysed and the total protein separated on a reducing polyacrylamide gel. The proteins are then transferred to a PVDF membrane by means of Western Blotting and the substrate bands sought are made visible with specific antibodies and a suitable detection method. The substrate proteins downstream of the target kinases are detected simultaneously with a respectively special anti-phospho-antibody and at the same time a total antibody which recognizes the substrate total protein. This simultaneous measurement can be made using the duplex technology of the ODYSSEY imagers (LiCOR). The intensity of the total substrate bands is used for normalising or quantifying the phosphorylation inhibition or activation.
(§8) Suitable tumour cell lines (e.g. BxPC3, Hct116 or MDA MB468) were injected into six-well microtitre plates in a defined cell number (e.g. 350 000 cells/well for BxPC3 and Hct116) in the respective standard complete medium and then incubated overnight at 37° C., 5% CO2 and 95% air humidity. The cells were then incubated for a further 24 h under serum-reduced conditions i.e. in the respective medium but with only 0.25% serum. The test substances were prepared as stock solutions (10 mM) in DMSO and incubated with the cells in final concentrations of 5, 15.8 and 50 μM for 5 h. This was followed by cell lysis in 25 mM Tris, 150 mM NaCl, 10 mM Na-pyrophosphate, 2 mM EGTA, 25 mM β-glycerophosphate, 25 mM NaF, 10% glycerine, 0.75% NP-40, 100 μM NaVO4 buffer. Following protein quantification by means of BCA (bicinchonic acid protein assay kit, Sigma) Assay, protein quantities of about 20 μg per track were separated on a Lämmli polyacrylamide gel and then transferred to a PVDF membrane (Millipore) by means of Semi-Dry Western-Blotting at 0.8 mA/cm^2 for 1 h. This was followed by pre-hybridisation of the membrane for 1 hour in I-block reagent (Applied Biosystems) and incubation overnight with the specific antibodies. To determine the Erk and PI3K inhibition, the respectively downstream substrates Rsk1 were detected with the total antibody (Rsk #sc-231g C-21, Santa Cruz) and the phospho-antibody (Phospho-p90RSK (S380) #9341, NEB Cell Signalling) and Akt was detected with the total antibody (Akt1 #sc-1618 C-20, Santa Cruz) and the phospho-antibody (Phospho-Akt (Ser 473) #9271, NEB Cell Signaling). After washing the membrane, secondary antibody incubation was carried out with anti-rabbit IR Dye 800 (#611-732-127, Rockland) for the phospho-antibody and anti-goat Alexa Fluor 680 (#A-21081, Molecular Probes) for the total protein-antibody. After incubating for 30 min at room temperature in the dark, the hybridisation of the detection antibody on the membrane was detected by scanning in the ODYSSEY imager (LiCOR).
(§9) The reduction of the fluorescence intensity of the phospho-substrate bands (pRsk and pAkt) is given in the table below as % inhibition and relates to the following formula:
(§10) The band intensity (fluorescence intensity) of the respective non-inhibited (without substance) phospho-substrates was used as 100% control.

[9] = tested on: PI3K → pAkt; assay: Cellular substrate phosphorylation (Western Blotting), PI3K substrate pAkt; format: cell-based; details: for inhibition at 50 µM: 5 h; for PI3K inhibition / inhibition of the PI3K substrate p-Akt (in words): Western Blotting
Description: as §7, §8, §9, §10

[10] = tested on: tumour cell lines (BxPC3, Hct116, MDA MB468); assay: XTT assay, anti-proliferative effect on the cell lines used; format: cell-based; details: compared to the Exemplary Embodiments
Description: as §2
The tumour cell lines (ATCC) were injected into 96-well microtitre plates in a defined cell number (5000 cells/well for BxPC3 and Hct116; 10000 cells/well for MDA MB468) and then incubated overnight in an incubator at 37° C., 5% CO2 and 95% air humidity. […]
as §4, with “It was then incubated for 3 h at 37° C., 95% air humidity.” left out
as §5
Eight determinations were made for each control and two for the substance samples. […] The EC50 values were determined using GraphPadPrism.

Erk2, sequence (P28482 2-360 limits assumed): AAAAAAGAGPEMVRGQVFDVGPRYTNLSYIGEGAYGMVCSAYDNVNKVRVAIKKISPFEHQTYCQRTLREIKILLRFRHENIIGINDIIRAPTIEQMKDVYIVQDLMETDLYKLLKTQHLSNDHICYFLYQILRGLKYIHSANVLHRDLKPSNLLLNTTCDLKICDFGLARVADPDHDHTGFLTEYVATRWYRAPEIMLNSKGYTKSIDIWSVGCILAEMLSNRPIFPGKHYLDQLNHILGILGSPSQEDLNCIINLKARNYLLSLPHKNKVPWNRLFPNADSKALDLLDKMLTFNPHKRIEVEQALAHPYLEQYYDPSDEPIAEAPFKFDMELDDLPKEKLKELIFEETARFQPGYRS

SMILES	IC50 [1] [µM]	IC50 [2] [µM]	IC50 [3] [µM]	IC50 [4] [µM]	EC50 [5] [µM]	EC50 [6] [µM]	EC50 [7] [µM]	inhibition at 50 µM [8] [%]	Erk inhibition / inhibition of the Erk substrate p-Rsk (in words) [8]	inhibition at 50 µM [9] [%]	PI3K inhibition / inhibition of the PI3K substrate p-Akt (in words) [9]	anti-proliferative effects on the cell lines used (in words) [10]
CCNC(=O)Nc1ccc2ncc(-c3cc(Cl)c(O)c(OC)c3)nc2n1 [Compound 156, 1-[3-(3-Chloro-4-hydroxy-5-methoxy-phenyl)-pyrido[2,3-b]pyrazin-6-yl]-3-ethyl-urea]	0.138	0.425	> 100	2.1	8.9	15	1.4	–	–	–	–	–
COC[C@H]1OC(=O)c2coc3c2[C@@]1(C)C1=C(C3=O)[C@@H]2CCC(=O)[C@@]2(C)C[C@H]1OC(C)=O [Wortmannin, reference compound]	–	–	–	–	–	–	–	0	no Erk or p-RSK inhibition	100	complete inhibition of the PI3K substrate pAkt	–
CCNC(=O)Nc1ccc2ncc(-c3ccc(OC)c(OC)c3)nc2n1 [Compound 153, 1-[3-(3,4-Dimethoxy-phenyl)-pyrido[2,3-b]pyrazin-6-yl]-3-ethyl-urea]	0.939	0.612	> 100	6.7	> 25	24	6	–	–	–	–	–
CCNC(=O)Nc1ccc2ncc(Nc3ccc(O)cc3)nc2n1 [Compound 164, 1-Ethyl-3-[3-(4-hydroxy-phenylamino)-pyrido[2,3-b]pyrazin-6-yl]-urea]	19.6	0.444	> 100	24.3	> 50	5.2	> 25	–	–	–	–	–
O=c1cc(N2CCOCC2)oc2c(-c3ccccc3)cccc12 [Ly294002, reference compound]	–	–	–	–	25	20	17	0	no Erk inhibition	40	only weak PI3K inhibition	weak anti-proliferative effects
CCNC(=O)Nc1ccc2ncc(Nc3cccc(C)c3)nc2n1 [Compound 157, 1-Ethyl-3-(3-m-tolylamino-pyrido-[2,3-b]pyrazin-6-yl)-urea]	> 100	0.348	> 100	28.5	> 25	3.5	4.4	–	–	–	–	–
